Measurements from patent publication US8802678B2, “Carbonylated (aza) cyclohexanes as dopamine D3 receptor ligands” (Bioprojet, priority 2006, dated 2014).

| melting point [°C] | Structure (SMILES) |
| --- | --- |
| 152 | COc1ccc(Cl)cc1N1CCN(CC[C@H]2CC[C@H](NC(=O)CCCC#N)CC2)CC1 [Example 415, N-(4-{2-[4-(5-Chloro-2-methoxyphenyl)piperazin-1-yl]ethyl}cyclohexyl)-4-cyanobutanamide] |
| 145 | COc1cccc(N2CCN(CC[C@H]3CC[C@H](NC(=O)CCCC#N)CC3)CC2)c1 [Example 416, 4-Cyano-N-(4-{2-[4-(3-methoxyphenyl)piperazin-1-yl]ethyl}cyclohexyl)butanamide] |
| 160 | COc1cccc(N2CCN(CC[C@H]3CC[C@H](NC(=O)C4=CCCC4)CC3)CC2)c1 [Example 417, Cyclopent-1-enecarboxylic acid (4-{2-[4-(3-methoxyphenyl)-piperazin-1-yl]ethyl}cyclohexyl) amide] |
| 140 | COc1cccc(N2CCN(CC[C@H]3CC[C@H](NC(=O)CCC#N)CC3)CC2)c1 [Example 418, 3-Cyano-N-(4-{2-[4-(3-methoxyphenyl)piperazin-1-yl]ethyl}cyclohexyl)propanamide] |
| 165 | COCCCC(=O)N[C@H]1CC[C@H](CCN2CCN(c3cccc(F)c3)CC2)CC1 [Example 419, N-(4-{2-[4-(3-Fluorophenyl)piperazin-1-yl]ethyl}cyclohexyl)-4-methoxybutanamide] |
| 188 | O=C(CC1C=CCC1)N[C@H]1CC[C@H](CCN2CCN(c3cccc(F)c3)CC2)CC1 (stereo partly shown) [Example 420, 2-Cyclopent-2-enyl-N-(4-{2-[4-(3-fluorophenyl)piperazin-1-yl]ethyl}cyclohexyl)acetamide] |
| 147 | COc1cc(N2CCN(CC[C@H]3CC[C@H](NC(=O)CCCC#N)CC3)CC2)cc(C(F)(F)F)c1 [Example 421, 4-Cyano-N-(4-{2-[4-(3-methoxy-5-trifluoromethylphenyl)piperazin-1-yl]ethyl}cyclohexyl)butanamide] |
| 135 | CCc1ccccc1N1CCN(CC[C@H]2CC[C@H](NC(=O)CC(F)(F)F)CC2)CC1 [Example 422, N-(4-{2-[4-(2-Ethylphenyl)piperazin-1-yl]ethyl}cyclohexyl)-3,3,3-trifluoropropanamide] |
| 193 | N#CCC(=O)N[C@H]1CC[C@H](CCN2CCN(c3cc(C(F)(F)F)c(Cl)cc3Cl)CC2)CC1 [Example 423, 2-Cyano-N-(4-{2-[4-(2,4-dichloro-5-trifluoromethylphenyl)piperazin-1-yl]ethyl}cyclohexyl)acetamide] |
| 188 | N#CCCCC(=O)N[C@H]1CC[C@H](CCN2CCN(c3cc(C(F)(F)F)c(Cl)cc3Cl)CC2)CC1 [Example 424, 4-Cyano-N-(4-{2-[4-(2,4-dichloro-5-trifluoromethylphenyl)piperazin-1-yl]ethyl}cyclohexyl)butanamide] |
| 185 | CCc1cccc(N2CCN(CC[C@H]3CC[C@H](NC(=O)CS(C)(=O)=O)CC3)CC2)c1 [Example 425, N-(4-{2-[4-(3-Ethylphenyl)-piperazin-1-yl]ethyl}cyclohexyl)-2-methanesulfonylacetamide] |
| 214 | CS(=O)(=O)CC(=O)N[C@H]1CC[C@H](CCN2CCN(c3cccc(F)c3F)CC2)CC1 [Example 426, N-(4-{2-[4-(2,3-Difluorophenyl)-piperazin-1-yl]ethyl}cyclohexyl)-2-methanesulfonylacetamide] |
| 214 | CS(=O)(=O)CC(=O)N[C@H]1CC[C@H](CCN2CCN(c3ccc(Cl)cc3)CC2)CC1 [Example 427, N-(4-{2-[4-(4-Chlorophenyl)-piperazin-1-yl]ethyl}cyclohexyl)-2-methanesulfonylacetamide] |
| 160 | Cc1ccccc1N1CCN(CC[C@H]2CC[C@H](NC(=O)CCCC#N)CC2)CC1 [Example 428, 4-Cyano-N-{4-[2-(4-o-tolylpiperazin-1-yl)ethyl]cyclohexyl}butanamide] |
| 162 | Cc1cccc(N2CCN(CC[C@H]3CC[C@H](NC(=O)CCCC#N)CC3)CC2)c1C [Example 429, 4-Cyano-N-(4-{2-[4-(2,3-dimethylphenyl)piperazin-1-yl]ethyl}cyclohexyl)butanamide] |
| 149 | N#CCCCC(=O)N[C@H]1CC[C@H](CCN2CCN(c3ccc(F)c(C(F)(F)F)c3)CC2)CC1 [Example 430, 4-Cyano-N-(4-{2-[4-(4-fluoro-3-trifluoromethylphenyl)piperazin-1-yl]ethyl}cyclohexyl)butanamide] |
| 227 | O=C(N[C@H]1CC[C@H](CCN2CCN(c3ccc(F)cc3)CC2)CC1)C1=CCCC1 [Example 431, Cyclopent-1-enecarboxylic acid (4-{2-[4-(4-fluorophenyl)-piperazin-1-yl]ethyl}cyclohexyl) amide] |
| 174 | N#CCCCC(=O)N[C@H]1CC[C@H](CCN2CCN(c3cc(C#N)cc(C(F)(F)F)c3)CC2)CC1 [Example 432, 4-Cyano-N-(4-{2-[4-(3-cyano-5-trifluoromethylphenyl)piperazin-1-yl]ethyl}cyclohexyl)butanamide] |
| 185 | Cc1cc(Cl)cc(N2CCN(CC[C@H]3CC[C@H](NC(=O)CC#N)CC3)CC2)c1 [Example 437, N-(4-{2-[4-(3-Chloro-5-methylphenyl)piperazin-1-yl]ethyl}cyclohexyl)-2-cyanoacetamide] |

| melting point [°C] | Structure (SMILES) |
| --- | --- |
| 165 | Cc1cc(Cl)cc(N2CCN(CC[C@H]3CC[C@H](NC(=O)CCCC#N)CC3)CC2)c1 [Example 438, N-(4-{2-[4-(3-Chloro-5-methylphenyl)piperazin-1-yl]ethyl}cyclohexyl)-4-cyanobutanamide] |
| 137 | CCOc1ccccc1N1CCN(CC[C@H]2CC[C@H](NC(=O)CCCC#N)CC2)CC1 [Example 439, 4-Cyano-N-(4-{2-[4-(2-ethoxyphenyl)piperazin-1-yl]ethyl}cyclohexyl)butanamide] |
| 156 | Cc1ccc(F)c(N2CCN(CC[C@H]3CC[C@H](NC(=O)CCCC#N)CC3)CC2)c1 [Example 440, 4-Cyano-N-(4-{2-[4-(2-fluoro-5-methylphenyl)piperazin-1-yl]ethyl}cyclohexyl)butanamide] |
| 209 | O=C(N[C@H]1CC[C@H](CCN2CCN(c3cc(F)ccc3F)CC2)CC1)C1=CCCC1 [Example 441, Cyclopent-1-enecarboxylic acid (4-{2-[4-(2,5-difluorophenyl)-piperazin-1-yl]ethyl}cyclohexyl) amide] |
| 159 | N#CCCCC(=O)N[C@H]1CC[C@H](CCN2CCN(c3cc(F)ccc3F)CC2)CC1 [Example 442, 4-Cyano-N-(4-{2-[4-(2,5-difluorophenyl)piperazin-1-yl]ethyl}cyclohexyl)butanamide] |
| 156 | O=C(N[C@H]1CC[C@H](CCN2CCN(c3cccc(C(F)(F)F)c3F)CC2)CC1)C(F)F [Example 443, 2,2-Difluoro-N-(4-{2-[4-(2-fluoro-3-trifluoromethylphenyl)piperazin-1-yl]ethyl}cyclohexyl)acetamide] |
| 197 | N#CCCCC(=O)N[C@H]1CC[C@H](CCN2CCN(c3cccc(F)c3F)CC2)CC1 [Example 445, 4-Cyano-N-(4-{2-[4-(2,3-difluorophenyl)piperazin-1-yl]ethyl}cyclohexyl)butanamide] |
| 220 | O=C(CC(F)(F)F)N[C@H]1CC[C@H](CCN2CCN(c3cccc(F)c3F)CC2)CC1 [Example 446, N-(4-{2-[4-(2,3-Difluorophenyl)piperazin-1-yl]ethyl}cyclohexyl)-3,3,3-trifluoropropanamide] |
| 225 | O=C(N[C@H]1CC[C@H](CCN2CCN(c3cccc(F)c3F)CC2)CC1)C1=CCCC1 [Example 447, Cyclopent-1-enecarboxylic acid (4-{2-[4-(2,3-difluorophenyl)-piperazin-1-yl]ethyl}cyclohexyl) amide] |
| 184 | N#CCCCC(=O)N[C@H]1CC[C@H](CCN2CCN(c3cccc(C#N)c3)CC2)CC1 [Example 448, 4-Cyano-N-(4-{2-[4-(3-cyanophenyl)piperazin-1-yl]ethyl}cyclohexyl)butanamide] |
| 118 | COc1c(Cl)cccc1N1CCN(CC[C@H]2CC[C@H](NC(=O)CCCC#N)CC2)CC1 [Example 449, N-(4-{2-[4-(3-Chloro-2-methoxyphenyl)piperazin-1-yl]ethyl}cyclohexyl)-4-cyanobutanamide] |
| 207 | N#CCC(=O)N[C@H]1CC[C@H](CCN2CCN(c3ccc(F)c(F)c3F)CC2)CC1 [Example 450, 2-Cyano-N-(4-{2-[4-(2,3,4-trifluorophenyl)piperazin-1-yl]ethyl}cyclohexyl)acetamide] |
| 178 | N#CCCCC(=O)N[C@H]1CC[C@H](CCN2CCN(c3ccc(F)c(F)c3F)CC2)CC1 [Example 451, 4-Cyano-N-(4-{2-[4-(2,3,4-trifluorophenyl)piperazin-1-yl]ethyl}cyclohexyl)butanamide] |
| 173 | CS(=O)(=O)c1cccc(N2CCN(CC[C@H]3CC[C@H](NC(=O)CC(F)(F)F)CC3)CC2)c1 [Example 452, 3,3,3-Trifluoro-N-(4-{2-[4-(3-methanesulfonylphenyl)piperazin-1-yl]ethyl}cyclohexyl)-propanamide] |
| 175 | N#CCC(=O)N[C@H]1CC[C@H](CCN2CCN(c3cccc4c3CCC4)CC2)CC1 [Example 456, 2-Cyano-N-{4-[2-(4-indan-4-ylpiperazin-1-yl)ethyl]cyclohexyl}acetamide] |
| 157 | N#CCCCC(=O)N[C@H]1CC[C@H](CCN2CCN(c3cccc4c3CCC4)CC2)CC1 [Example 457, 4-Cyano-N-{4-[2-(4-indan-4-ylpiperazin-1-yl)ethyl]cyclohexyl}butanamide] |
| 190 | O=C(N[C@H]1CC[C@H](CCN2CCN(c3cccc(C(F)(F)F)c3F)CC2)CC1)C1=CCCC1 [Example 458, Cyclopent-1-enecarboxylic acid (4-{2-[4-(2-fluoro-3-trifluoro-methylphenyl)piperazin-1-yl]ethyl}cyclohexyl) amide] |
| 244 | NC(=O)CCC(=O)N[C@H]1CC[C@H](CCN2CCN(c3cccc(C(F)(F)F)c3F)CC2)CC1 [Example 459, N-(4-{2-[4-(2-Fluoro-3-trifluoro-methylphenyl)piperazin-1-yl]ethyl}cyclohexyl)succinamide] |
